Laboratory results taken from US20240025906A1 (NEURON23, INC., priority 2022, published 2024).
Read-outs that look alike come from different tables or passages of the source.

Assays:
TYK2 JH2 = molecular target: T1, TYK2 JH2 (Homo sapiens, UniProt P29597); assay: TYK2 JH2 binding assay (KINOMEscan KdELECT competitive binding); details: TYK2 JH2 domain
T1 construct: purchased DiscoverX (KINOMEscan KdELECT service); host or cells: E. coli BL21-derived (T7 phage display) or HEK-293
How it was run: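 Beads carrying a biotinylated ligand were mixed with tagged JH2 kinase and compound (11 points, 3-fold steps, 0.9% DMSO) and shaken 1 h at room temperature. After washing, kinase was released with 0.5 μM untagged ligand over 30 min and measured by qPCR to derive Kd.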

[1] = test system: JAK1/TYK2 pSTAT5 (Tyr694/699) in THP-1 cell line; assay: IFNa-stimulated JAK1/TYK2 pSTAT5 (Tyr694/699) inhibition cellular assay, AlphaLISA; type: cell-based; details: Homo sapiens, THP-1 cells, AlphaLISA (Assay B)
How it was run: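 THP-1 cells (2e4/well) in HBSS preincubated 1 h at 37° C. with compound (final 10000–0.04 nM, 8 points, 6-fold), then stimulated with IFNa (100 ng/mL stock) for 30 min before lysis. pSTAT5 (Tyr694/699) read by AlphaLISA at 615 nm; IC50 from four-parameter logistic fit with bottom fixed at 0 and Hill slope at −1.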

[2] = DiscoverX KINOMEscan KdELECT (Assay A), read-out: Biochemical TYK2_DiscoverX_JH2_BND_Kd
[3] = IFNa-stimulated, read-out: Cellular_THP1_IFNa-pSTATS_TYK2
[4] = KINOMEscan KdELECT (Assay A), read-out: Biochemical TYK2_DiscoverX_JH2_BND_Kd
[5] = KINOMEscan KdELECT (Assay A), read-out: Biochemical TYK2_JH2_Kd
[6] = IFNa-stimulated, read-out: Cellular THP1_IFNa-pSTATS_IC50
[7] = IFNa-stimulated pSTAT5 (Tyr694/699), read-out: Cellular_THP1_IFNa-pSTATS_TYK2

T1 sequence (P29597 589-875 limits assumed): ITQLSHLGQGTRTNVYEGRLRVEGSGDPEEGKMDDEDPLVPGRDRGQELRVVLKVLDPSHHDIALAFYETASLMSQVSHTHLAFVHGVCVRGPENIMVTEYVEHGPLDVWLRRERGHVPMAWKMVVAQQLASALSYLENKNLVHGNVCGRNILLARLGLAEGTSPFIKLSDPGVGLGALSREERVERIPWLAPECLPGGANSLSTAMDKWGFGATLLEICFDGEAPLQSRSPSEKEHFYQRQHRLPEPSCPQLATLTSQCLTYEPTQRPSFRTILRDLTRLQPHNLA

| SMILES | Kd (TYK2 JH2; [2]) [nM] | IC50 [1, 3] [nM] | Kd (TYK2 JH2; [4]) [nM] | other results |
| --- | --- | --- | --- | --- |
| CNc1ncc(-c2nc3cccc(N4CCC4COC)c3o2)c2cc(NC(=O)C3CC3)ncc12 (centres unmarked) [Example 263, N-(5-(7-(2-(methoxymethyl)azetidin-1-yl)benzo[d]oxazol-2-yl)-8-(methylamino)-2,7-naphthyridin-3-yl)cyclopropanecarboxamide] | ≤ 100 | > 500 | – | – |
| CNc1ncc(/C=C/c2cccc(OC)c2)c2cc(NC(=O)C3CC3)ncc12 [Example 167, (E)-N-(5-(3-methoxystyryl)-8-(methylamino)-2,7-naphthyridin-3-yl)cyclopropanecarboxamide] | – | – | – | Kd (TYK2 JH2; [5]): ≤ 100 nM; IC50 [1, 6]: ≤ 500 nM |
| CNc1ncc(-c2nc3cc(N4CC5(CN(C(C)=O)C5)C4)ccc3o2)c2cc(NC(=O)C3CC3)ncc12 [Example 322, N-(5-(5-(6-acetyl-2,6-diazaspiro[3.3]heptan-2-yl)benzo[d]oxazol-2-yl)-8-(methylamino)-2,7-naphthyridin-3-yl)cyclopropanecarboxamide] | ≤ 100 | ≤ 500 | – | – |
| CCNc1ncc(-c2nc3ccc(N4CCOCC4)cn3n2)c2cc(NC(=O)C3CC3)ncc12 [Example 514, N-(8-(ethylamino)-5-(6-morpholino-[1,2,4]triazolo[1,5-a]pyridin-2-yl)-2,7-naphthyridin-3-yl)cyclopropanecarboxamide] | ≤ 100 | ≤ 500 | – | – |
| CNc1ncc(-c2nc3cc(-n4c(=O)ccn4C)ccc3o2)c2cc(NC(=O)C3CC3)ncc12 [Example 446, N-(5-(5-(2-methyl-5-oxo-2,5-dihydro-1H-pyrazol-1-yl)benzo[d]oxazol-2-yl)-8-(methylamino)-2,7-naphthyridin-3-yl)cyclopropanecarboxamide] | ≤ 100 | > 500 | – | – |
| CNc1ncc(-c2c[nH]c3ncccc23)c2cc(NC(=O)C3CC3)ncc12 [Example 106, N-(8-(methylamino)-5-(1H-pyrrolo[2,3-b]pyridin-3-yl)-2,7-naphthyridin-3-yl)cyclopropanecarboxamide] | – | – | – | Kd (TYK2 JH2; [5]): ≤ 100 nM; IC50 [1, 6]: > 500 nM |
| [2H]C([2H])([2H])Nc1ncc(-c2nc3ccccc3o2)c2cc(NC(C)=O)ncc12 [Example 431, N-(5-(benzo[d]oxazol-2-yl)-8-((methyl-d3)amino)-2,7-naphthyridin-3-yl)acetamide] | ≤ 100 | ≤ 500 | – | – |
| CNc1ncc(-c2ccn(Cc3ccccc3)n2)c2cc(NC(=O)C3CC3)ncc12 [Example 131, N-(5-(1-benzyl-1H-pyrazol-3-yl)-8-(methylamino)-2,7-naphthyridin-3-yl)cyclopropanecarboxamide] | – | – | – | Kd (TYK2 JH2; [5]): ≤ 100 nM; IC50 [1, 6]: > 500 nM |
| CNc1ncc(-c2nc3cc(OC)ccn3n2)c2cc(NC(=O)C3CC3)ncc12 [Example 492, N-(5-(7-methoxy-[1,2,4]triazolo[1,5-a]pyridin-2-yl)-8-(methylamino)-2,7-naphthyridin-3-yl)cyclopropanecarboxamide] | ≤ 100 | ≤ 500 | – | – |
| CNc1ncc(-c2nc3ccc(N4C5CCC4COC5)cn3n2)c2cc(NC(=O)C3CC3)ncc12 [Example 487, N-(5-(6-(3-oxa-8-azabicyclo[3.2.1]octan-8-yl)-[1,2,4]triazolo[1,5-a]pyridin-2-yl)-8-(methylamino)-2,7-naphthyridin-3-yl)cyclopropanecarboxamide] | ≤ 100 | ≤ 500 | – | – |
| CNc1ncc(C2CCOCC2)c2cc(NC(=O)C3CC3)ncc12 [Example 68, N-(8-(methylamino)-5-(tetrahydro-2H-pyran-4-yl)-2,7-naphthyridin-3-yl)cyclopropanecarboxamide] | – | – | – | Kd (TYK2 JH2; [5]): ≤ 100 nM; IC50 [1, 6]: > 500 nM |
| CNc1ncc(C2=CCOCC2)c2cc(NC(=O)C3CC3)ncc12 [Example 67, N-(5-(3,6-dihydro-2H-pyran-4-yl)-8-(methylamino)-2,7-naphthyridin-3-yl)cyclopropanecarboxamide] | – | – | – | Kd (TYK2 JH2; [5]): ≤ 100 nM; IC50 [1, 6]: > 500 nM |
| CNc1ncc(-c2cc(C)n[nH]2)c2cc(NC(=O)C3CC3)ncc12 [Example 23, N-(5-(3-methyl-1H-pyrazol-5-yl)-8-(methylamino)-2,7-naphthyridin-3-yl)cyclopropanecarboxamide] | – | – | – | Kd (TYK2 JH2; [5]): ≤ 100 nM; IC50 [1, 6]: > 500 nM |
| CNc1ncc(-c2nc3ccc(OCC(C)(C)C#N)cn3n2)c2cc(NC(=O)C3CC3)ncc12 [Example 498, N-(5-(6-(2-cyano-2-methylpropoxy)-[1,2,4]triazolo[1,5-a]pyridin-2-yl)-8-(methylamino)-2,7-naphthyridin-3-yl)cyclopropanecarboxamide] | ≤ 100 | ≤ 500 | – | – |
| CNc1ncc(-c2nc3cc(N4CCC[C@H](C#N)C4)ccc3o2)c2cc(NC(=O)C3CC3)ncc12 [Example 293] | ≤ 100 | ≤ 500 | – | – |

Further lines, with some results ahead:

| Kd (TYK2 JH2; [2]) [nM] | IC50 [1, 3] [nM] | Kd (TYK2 JH2; [4]) [nM] | SMILES | other results |
| --- | --- | --- | --- | --- |
| ≤ 100 | ≤ 500 | – | CNc1ncc(-c2nc3ccc(N4CCO[C@@H](C)C4)cn3n2)c2cc(NC(=O)[C@@H]3C[C@@H]3C(F)(F)F)ncc12 (single isomer, unassigned) [Example 542] | – |
| – | ≤ 500 | ≤ 100 | CNc1ncc(C#Cc2ccc3c(c2)C(F)(F)C(=O)N3C)c2cc(NC(=O)C3CC3)ncc12 [Example 972, N-[5-[2-(3,3-difluoro-1-methyl-2-oxo-indolin-5-yl)ethynyl]-8-(methylamino)-2,7-naphthyridin-3-yl]cyclopropanecarboxamide] | – |
| – | ≤ 500 | ≤ 100 | CNc1ncc(C#Cc2ccc(Oc3ncn(C)n3)cc2)c2cc(NC(=O)C3CC3)ncc12 [Example 711, N-(5-((4-((1-methyl-1H-1,2,4-triazol-3-yl)oxy)phenyl)ethynyl)-8-(methylamino)-2,7-naphthyridin-3-yl)cyclopropanecarboxamide] | – |
| – | ≤ 500 | ≤ 100 | CNc1ncc(-c2nc3cc(N4CC(C)(F)C4)ccc3o2)c2cc(NC(=O)C3CC3)ncc12 [Example 932, N-(5-(5-(3-fluoro-3-methylazetidin-1-yl)benzo[d]oxazol-2-yl)-8-(methylamino)-2,7-naphthyridin-3-yl)cyclopropanecarboxamide] | – |
| – | ≤ 500 | ≤ 100 | CNc1ncc(C#Cc2ccc3c(c2)OCCO3)c2cc(NC(=O)C3CC3)ncc12 [Example 894, N-(5-((2,3-dihydrobenzo[b][1,4]dioxin-6-yl)ethynyl)-8-(methylamino)-2,7-naphthyridin-3-yl)cyclopropanecarboxamide] | – |
| – | ≤ 500 | ≤ 100 | [2H]C([2H])([2H])n1cc(C#Cc2cnc(NC)c3cnc(NC(=O)C4CC4)cc23)nc1C [Example 898, N-(5-((2-methyl-1-(methyl-d3)-1H-imidazol-4-yl)ethynyl)-8-(methylamino)-2,7-naphthyridin-3-yl)cyclopropanecarboxamide] | – |
| – | ≤ 500 | ≤ 100 | CCn1nnc2ccc(C#Cc3cnc(NC)c4cnc(NC(=O)C5CC5)cc34)cc21 [Example 683, N-(5-((1-ethyl-1H-benzo[d][1,2,3]triazol-6-yl)ethynyl)-8-(methylamino)-2,7-naphthyridin-3-yl)cyclopropanecarboxamide] | – |
| – | ≤ 500 | ≤ 100 | CNc1ncc(CCc2ccc3nnn(C)c3c2)c2cc(NC(=O)C3CC3)ncc12 [Example 866, N-(5-(2-(1-methyl-1H-benzo[d][1,2,3]triazol-6-yl)ethyl)-8-(methylamino)-2,7-naphthyridin-3-yl)cyclopropanecarboxamide] | – |
| – | – | ≤ 100 | CNc1ncc(-c2nc3cc(N4C[C@@H](C)O[C@@H](C)C4)ccc3o2)c2cc(NC(=O)[C@@H]3C[C@@H]3F)ncc12 [Example 1062, (1S,2S)-N-[5-[5-[(2R,6S)-2,6-dimethylmorpholin-4-yl]-1,3-benzoxazol-2-yl]-8-(methylamino)-2,7-naphthyridin-3-yl]-2-fluoro-cyclopropanecarboxamide] | IC50 [1, 7]: ≤ 500 nM |
| ≤ 100 | ≤ 500 | – | CNc1ncc(-c2nc3ccc(N4CCO[C@H](C)C4)cn3n2)c2cc(NC(=O)[C@H]3C[C@H]3C)ncc12 [Example 547, (1S,2R)-2-methyl-N-(8-(methylamino)-5-(6-((R)-2-methylmorpholino)-[1,2,4]triazolo[1,5-a]pyridin-2-yl)-2,7-naphthyridin-3-yl)cyclopropane-1-carboxamide] | – |
| – | – | ≤ 100 | CNc1ncc(-c2nc3ccc(N4CCOCC4)cn3n2)c2cc(Nc3nccc(C(C)(C)O)c3F)ncc12 [Example 1089, 2-[3-fluoro-2-[[8-(methylamino)-5-(6-morpholino-[1,2,4]triazolo[1,5-a]pyridin-2-yl)-2,7-naphthyridin-3-yl]amino]-4-pyridyl]propan-2-ol] | IC50 [1, 7]: ≤ 500 nM |
| – | ≤ 500 | ≤ 100 | CNc1ncc(C#Cc2ccc(OC3COC3)cc2)c2cc(NC(=O)C3CC3)ncc12 [Example 707, N-(8-(methylamino)-5-((4-(oxetan-3-yloxy)phenyl)ethynyl)-2,7-naphthyridin-3-yl)cyclopropanecarboxamide] | – |
| – | ≤ 500 | ≤ 100 | CNc1ncc(C#Cc2nccc3ccsc23)c2cc(NC(=O)C3CC3)ncc12 [Example 984, N-[8-(methylamino)-5-(2-thieno[2,3-c]pyridin-7-ylethynyl)-2,7-naphthyridin-3-yl]cyclopropanecarboxamide] | – |
